What was measured:
Format in all cases: in vivo
rice (Oryra sativa) = test: Test B flooded paddy test; settings: Oryza sativa, 250 g ai/ha, Flood; 0 to 100 scale where 0 is no effect and 100 is complete control; read-out: Rice plant response rating
Method in brief: (§1)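 Greenhouse paddy pots with 2-leaf stage plants received compound by direct addition to floodwater 3 cm deep, kept at that level. Scored visually at 13–15 d versus controls (0 no effect; 100 complete control).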

[1] = tested on: barnyardgrass (Echinochloa crus-galli); test: Test B flooded paddy test; settings: Echinochloa crus-galli, 250 g ai/ha, Flood; 0 to 100 scale where 0 is no effect and 100 is complete control; read-out: Barnyardgrass plant response rating
Method in brief: as §1

[2] = tested on: sedge, umbrella (small-flower umbrella sedge, Cyperus difformis); test: Test B flooded paddy test; settings: Cyperus difformis, 250 g ai/ha, Flood; 0 to 100 scale where 0 is no effect and 100 is complete control; read-out: Sedge, Umbrella plant response rating
Method in brief: as §1

[3] = tested on: ducksalad (Heteranthera limosa); test: Test B flooded paddy test; settings: Heteranthera limosa, 250 g ai/ha, Flood; 0 to 100 scale where 0 is no effect and 100 is complete control; read-out: Ducksalad plant response rating
Method in brief: as §1

Kochia (Kochia scoparia) [4] = test: Test A postemergence; settings: Bassia scoparia, post-emergence, 240 h
Method in brief: (§2)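 Compounds were formulated in a non-phytotoxic solvent mixture with surfactant and applied as a preemergence directed soil spray after seeding, or sprayed postemergence over plants 2 to 10 cm tall at the one- to two-leaf stage. Evaluation after about 10 d compared treated with untreated controls, using a scale from 0 (no effect) to 100 (complete control).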

[5] = tested on: giant foxtail (Setaria faberii); test: Test A postemergence; settings: Setaria faberi, post-emergence, 240 h
Method in brief: as §2

[6] = tested on: barnyardgrass (Echinochloa crus-galli); test: Test A postemergence; settings: Echinochloa crus-galli, post-emergence, 240 h
Method in brief: as §2

[7] = tested on: Galium (catchweed bedstraw, Galium aparine); test: Test A postemergence; settings: Galium, post-emergence, 240 h
Method in brief: as §2

[8] = tested on: ryegrass, Italian (Italian ryegrass, Lolium multiflorum); test: Test A postemergence; settings: Lolium multiflorum, post-emergence, 240 h
Method in brief: as §2

[9] = tested on: ragweed (common ragweed, Ambrosia elatior); test: Test A postemergence; settings: Ambrosia artemisiifolia, post-emergence, 240 h
Method in brief: as §2

[10] = tested on: pigweed (Amaranthus retroflexus); test: Test A postemergence; settings: Amaranthus retroflexus, post-emergence, 240 h
Method in brief: as §2

[11] = tested on: wheat (Triticum aestivum); test: Test A postemergence; settings: Triticum aestivum, post-emergence, 240 h
Method in brief: as §2

corn (Zea mays) = test: Test A postemergence; settings: Zea mays, post-emergence, 240 h
Method in brief: as §2

[12] = tested on: blackgrass (Alopecurus myosuroides); test: Test A postemergence; settings: Alopecurus myosuroides, post-emergence, 240 h
Method in brief: as §2

Kochia (Kochia scoparia) [13] = test: Test A preemergence; settings: Bassia scoparia, pre-emergence, 240 h, 0 to 100 scale where 0 is no effect and 100 is complete control, read-out: Kochia plant response rating
Method in brief: as §2

[14] = tested on: giant foxtail (Setaria faberii); test: Test A preemergence; settings: Setaria faberi, pre-emergence, 240 h, Preemergence
Method in brief: as §2

[15] = tested on: barnyardgrass (Echinochloa crus-galli); test: Test A preemergence; settings: Echinochloa crus-galli, pre-emergence, 240 h, Preemergence
Method in brief: as §2

[16] = tested on: ryegrass, Italian (Italian ryegrass, Lolium multiflorum); test: Test A preemergence; settings: Lolium multiflorum, pre-emergence, 240 h, 0 to 100 scale where 0 is no effect and 100 is complete control, read-out: Ryegrass, Italian plant response rating
Method in brief: as §2

[17] = tested on: ragweed (common ragweed, Ambrosia elatior); test: Test A preemergence; settings: Ambrosia artemisiifolia, pre-emergence, 240 h, 0 to 100 scale where 0 is no effect and 100 is complete control, read-out: Ragweed plant response rating
Method in brief: as §2

[18] = tested on: pigweed (Amaranthus retroflexus); test: Test A preemergence; settings: Amaranthus retroflexus, pre-emergence, 240 h, 0 to 100 scale where 0 is no effect and 100 is complete control, read-out: Pigweed plant response rating
[19] = 125 g ai/ha, preemergence, approx. 10 d

Cc1ccc([C@H]2CN(C)C(=O)[C@@H]2C(=O)Nc2cnccc2C(F)(F)F)cc1 [Compound 1067]
pest or weed control at 250 g/ha (rice (Oryra sativa)): 0% | pest or weed control at 250 g/ha [1]: 20% | pest or weed control at 250 g/ha [2]: 0% | pest or weed control at 250 g/ha [3]: 85% | pest or weed control at 125 g/ha (Kochia (Kochia scoparia) [4]; 125 g ai/ha, postemergence, visual injury on 0 to 100 scale (0 no effect, 100 complete control), approx. 10 d, read-out: Kochia plant response rating): 30% | pest or weed control at 31 g/ha (Kochia (Kochia scoparia) [4]; Postemergence, 31 g ai/ha, visual injury after approx. 10 d, 0 to 100 scale, 0 no effect, 100 complete control, read-out: Plant response rating, Kochia): 0% | pest or weed control at 125 g/ha ([5]; 125 g ai/ha, postemergence, visual injury on 0 to 100 scale (0 no effect, 100 complete control), approx. 10 d, read-out: Foxtail, Giant plant response rating): 90% | pest or weed control at 31 g/ha ([5]; Postemergence, 31 g ai/ha, visual injury after approx. 10 d, 0 to 100 scale, 0 no effect, 100 complete control, read-out: Plant response rating, Foxtail, Giant): 30% | pest or weed control at 125 g/ha ([6]; 125 g ai/ha, postemergence, visual injury on 0 to 100 scale (0 no effect, 100 complete control), approx. 10 d, read-out: Barnyardgrass plant response rating): 60% | pest or weed control at 31 g/ha ([6]; Postemergence, 31 g ai/ha, visual injury after approx. 10 d, 0 to 100 scale, 0 no effect, 100 complete control, read-out: Plant response rating, Barnyardgrass): 20% | pest or weed control at 125 g/ha ([7]; 125 g ai/ha, postemergence, visual injury on 0 to 100 scale (0 no effect, 100 complete control), approx. 10 d, read-out: Galium plant response rating): 50% | pest or weed control at 31 g/ha ([7]; Postemergence, 31 g ai/ha, visual injury after approx. 10 d, 0 to 100 scale, 0 no effect, 100 complete control, read-out: Plant response rating, Galium): 0% | pest or weed control at 125 g/ha ([8]; 125 g ai/ha, postemergence, visual injury on 0 to 100 scale (0 no effect, 100 complete control), approx. 10 d, read-out: Ryegrass, Italian plant response rating): 0% | pest or weed control at 31 g/ha ([8]; Postemergence, 31 g ai/ha, visual injury after approx. 10 d, 0 to 100 scale, 0 no effect, 100 complete control, read-out: Plant response rating, Ryegrass, Italian): 0% | pest or weed control at 125 g/ha ([9]; 125 g ai/ha, postemergence, visual injury on 0 to 100 scale (0 no effect, 100 complete control), approx. 10 d, read-out: Ragweed plant response rating): 0% | pest or weed control at 31 g/ha ([9]; Postemergence, 31 g ai/ha, visual injury after approx. 10 d, 0 to 100 scale, 0 no effect, 100 complete control, read-out: Plant response rating, Ragweed): 0% | pest or weed control at 125 g/ha ([10]; 125 g ai/ha, postemergence, visual injury on 0 to 100 scale (0 no effect, 100 complete control), approx. 10 d, read-out: Pigweed plant response rating): 0% | pest or weed control at 31 g/ha ([10]; Postemergence, 31 g ai/ha, visual injury after approx. 10 d, 0 to 100 scale, 0 no effect, 100 complete control, read-out: Plant response rating, Pigweed): 0% | plant injury at 125 g/ha ([11]; 125 g ai/ha, postemergence, visual injury on 0 to 100 scale (0 no effect, 100 complete control), approx. 10 d, read-out: Wheat plant response rating): 40% | plant injury at 31 g/ha ([11]; Postemergence, 31 g ai/ha, visual injury after approx. 10 d, 0 to 100 scale, 0 no effect, 100 complete control, read-out: Plant response rating, Wheat): 0% | plant injury at 125 g/ha (corn (Zea mays); 125 g ai/ha, postemergence, visual injury on 0 to 100 scale (0 no effect, 100 complete control), approx. 10 d, read-out: Corn plant response rating): 0% | Corn plant response rating (crop injury, 0 = no effect, 100 = complete kill) at 31 g/ha (corn (Zea mays); Postemergence, 31 g ai/ha, visual injury after approx. 10 d, 0 to 100 scale, 0 no effect, 100 complete control): 0% | pest or weed control at 125 g/ha ([12]; 125 g ai/ha, postemergence, visual injury on 0 to 100 scale (0 no effect, 100 complete control), approx. 10 d, read-out: Blackgrass plant response rating): 50% | pest or weed control at 31 g/ha ([12]; Postemergence, 31 g ai/ha, visual injury after approx. 10 d, 0 to 100 scale, 0 no effect, 100 complete control, read-out: Plant response rating, Blackgrass): 0% | pest or weed control at 31 g/ha (Kochia (Kochia scoparia) [13]; 31 g ai/ha, Preemergence): 0% | pest or weed control at 125 g/ha (Kochia (Kochia scoparia) [13]; [19]): 70% | pest or weed control at 31 g/ha ([14]; 31 g ai/ha, 0 to 100 scale where 0 is no effect and 100 is complete control, read-out: Foxtail, Giant plant response rating): 90% | pest or weed control at 125 g/ha ([14]; 125 g ai/ha, visual injury rating after approximately 10 d, read-out: Foxtail, Giant plant response rating (0 to 100 scale, 0 is no effect, 100 is complete control)): 100% | pest or weed control at 31 g/ha ([15]; 31 g ai/ha, 0 to 100 scale where 0 is no effect and 100 is complete control, read-out: Barnyardgrass plant response rating): 30% | pest or weed control at 125 g/ha ([15]; 125 g ai/ha, visual injury rating after approximately 10 d, read-out: Barnyardgrass plant response rating (0 to 100 scale, 0 is no effect, 100 is complete control)): 100% | pest or weed control at 31 g/ha ([16]; 31 g ai/ha, Preemergence): 20% | pest or weed control at 125 g/ha [16, 19]: 70% | pest or weed control at 31 g/ha ([17]; 31 g ai/ha, Preemergence): 0% | pest or weed control at 125 g/ha [17, 19]: 60% | pest or weed control at 31 g/ha ([18]; 31 g ai/ha, Preemergence): 0% | pest or weed control at 125 g/ha [18, 19]: 0%
